Like-named read-outs stand apart in the source and are kept apart here.
Key:
[1] = tested on: bovine aortic endothelial cells (ECs); assay: Fluorescence light microscopy of actin-stained ECs on the gold QCM crystal surface; format: cell-based; conditions: 15 μM (FIG. 8B), four hours treatment
Description: For actin localization in the multichamber wells or in the QCM device, media was aspirated and replaced with 3.5% formaldehyde. The cells were fixed for 15 mins at room temperature, washed with PBS and then incubated with rhodamine-labeled phalloidin (0.165 μM in PBS) for 30 mins at room temperature. The cells were then washed with PBS and coverslipped with Cytoseal mounting medium (VWR Scientific). The cells were examined using an Olympus BH2 CTD microscope, and the images were digitized using a CCD camera and imported into Photoshop 5.0 of Adobe® and using a Gateways® P11-390 computer. Actin localization within cells grown and or treated with nocodazole in the QCM. We wished to examine the ECs directly attached to the QCM surface with and without nocodazole treatment. Since the […] needed to be chemically fixed on the surface, we needed to sacrifice crystals for this purpose. Two different crystals were used. The first crystal was used to visualize ECs growing on the gold QCM surface at the steady state condition. At the conclusion of the QCM measurement, cells on the crystals were stained to localize actin microfilaments. In the first experiment, ECs were added to the crystal and were allowed to attach for 24 hrs to achieve their normal characteristic Δf and ΔR shifts. […]

[2] = tested on: bovine aortic endothelial cells (ECs); assay: Fluorescence light microscopy of actin-stained ECs in multichamber LabTek slides (QCM simulation); format: cell-based; conditions: for EC shape and morphology (actin stain): 4 hr treatment
Description: To acquire detailed information about the change in cell shape and attachment while ECs were exposed to varying nocodazole concentrations, we performed a simulation experiment. 76,400 ECs were plated into multichamber LabTek slides and were allowed to attach for 24 hrs in normal growth media. This number of cells simulates the cell surface density in the QCM device. 50 μL of media was then removed and replaced with 50 μL of media with or without concentrated nocodazole. In duplicate, cells either received no nocodazole (control) or final concentrations of 0.33, 1, 2, 6 or 15 μM nocodazole. After four hours, the cells were fixed and stained to reveal the actin microfilament arrangement within the cells, as described below. These studies were performed to detect the shape and attachment changes in ECs that would roughly correspond to a time when the QCM detected maximal shifts in f and R values. […] For actin localization in the multichamber wells or in the QCM device, media was aspirated and replaced with 3.5% formaldehyde. The cells were fixed for 15 mins at room temperature, washed with PBS and then incubated with rhodamine-labeled phalloidin (0.165 μM in PBS) for 30 mins at room temperature. The cells were then washed with PBS and coverslipped with Cytoseal mounting medium (VWR Scientific). The cells were examined using an Olympus BH2 CTD microscope, and the images were digitized using a CCD camera and imported into Photoshop 5.0 of Adobe® and using a Gateways® P11-390 computer.

[3] = tested on: bovine aortic endothelial cells (ECs); assay: EC QCM biosensor: Δf and ΔR shifts of attached endothelial cells after drug addition; format: cell-based; conditions: for EC50: Bos taurus, Endothelial cell
Description: The details of how these measurements were made have been presented previously. Basically, an AT cut quartz crystal of resonant frequency 8.85 MHz with gold electrode (5 mm diameter)was used in a cylindrical Teflon cell (Seiko EG&G). The crystal was sandwiched between two silicone O-rings to allow only one side of the electrode to be exposed to the media and serum containing solution (FIG. 1B). The QCM device was placed within a large petri dish, filled with distilled water, at a level well […] the water surface. This water reservoir allowed humidity to be maintained, preventing evaporation from the QCM cell. The QCM was covered with a petri dish cover plate following placement inside a 37° C. temperature regulated cell incubator. A Model QCA 917 Quartz Crystal Analyzer System (Seiko EG&G), comprised of a Main Unit and Oscillator, was used for the simultaneous measurement of the resonant frequency (f) and resonance admittance (A). Before assembly in the well holder, the gold QCM surface was treated chemically to render it hydrophilic. A drop of 1:3 H2O2 (30%): H2SO4 at 80° C. was placed upon and covered the gold surface for 5 minutes, followed by rinsing with distilled water and drying under N2. This procedure was repeated three times. After sterilization and washing with water and PBS, 52 μl of media and 10% Calf Serum (CS) was added onto the QCM electrode and the entire holder was put into a humidified CO2 incubator controlled at 10% CO2. The f and admittance (A) values were automatically monitored at 1 minute intervals using a PC and WinWedge 32, version 3.0 Software (TAL Technologies®) and the stable values at 2 hour were taken as reference values before the addition of cells. After 2 hours, 250 μl media +10% CS containing a specific number of cells was added evenly to the medium surface. Then f and A values were automatically monitored during the process of EC sedimentation to the crystal surface, and during their impact and spreading over a 20 hr period to achieve steady state attachment. In the data reduction phase, values of A, in μS were converted into motional resistance, R, in units of Ω, using the relationship R=10^6/A. Nocodazole achieved its final concentration by being added in a pre-warned 50 μl volume of media and serum, following removal of 50 μl from the top of the EC QCM biosensor well holder. Following the conclusion of each experiment, trypsinable ECs adhering to the gold QCM surface were determined as described below. Bovine aortic endothelial cells (BAEs) were obtained from Clonetics, Inc., and were maintained as stock cultures in DMEM-10% CS, as previously described. BAEs were not used beyond passage 22. For experimental treatments, ECs were trypsinized, washed with PBS, and precise counts of the number of cells were made using an electronic cell counter made by Coulter, Inc., following resuspension in full media (250 μl). At the end of a QCM experiment, cells firmly attached were determined via trypsinization assay and an electronic counter. This protocol involved the following steps. Media was collected from the QCM (M). The QCM was gently washed with 100 μl PBS (W). After 125 μl trypsin (0.05% w/v trypsin, 0.53 mM EDTA, in Hank's Buffered salt solution) was added and incubated for 6 min. at 37° C., this fraction was collected (T1). Following a second trypsinization wash, identical to the first, this fraction was collected (T2). Aliquots from all of the four steps (M, W, T1, T2) were electronically counted using Coulter counting. After trypsinization, the QCM electrode was washed successively with PBS, water, ethanol, then detached from the well holder. It was then cleaned sequentially with a number of reagents to remove all residual ECM and cell debris, as we have previously described. Cleaned in this way, the QCM was used repeatedly with good reproducibility of its initial f and R values, due to complete protein removal from the QCM surface.

[4] = tested on: bovine aortic endothelial cells (ECs); conditions: 3 ng/ml, over 3 days following administration; cited from earlier work
[5] = fluorescence light microscope observations
[6] = 15 μM, ECs beginning to detach from crystal surface

Row | Molecule | EC shape and morphology on QCM crystal (actin stain) [1] | EC shape and morphology (actin stain) ([2]; 0.33 μM) | EC shape and morphology (actin stain) ([2]; 1 and 2 μM) | EC shape and morphology (actin stain) ([2]; 6 and 15 μM) | concentration at which changes in EC intercellular contacts and progressive cell rounding begin [2, 5] | concentration by which changes in EC intercellular contacts and cell rounding saturate [2, 5] | initial maximum increase in ΔR after drug addition ([3]; 2.0 μM final concentration, 20,000 ECs added, steady state biosensor) | Δf drop after drug addition ([3]; 2.0 μM final concentration, over the next 4 hours, 20,000 ECs added, steady state biosensor) | Δ(ΔR) value at 15 μM relative to that measured at 6 μM [3, 6] | Δ(Δf) value at 15 μM relative to that measured at 6 μM [3, 6] | EC50 ([3]; as printed in the conclusion, read-out: PC50 (midpoint value of dose effect curve)) | EC50 ([3]; dose curves of Δ(Δf) and Δ(ΔR) vs log concentration, 0.11-6 μM, read-out: PC50 (effective change in cellular attachment in 50% of the ECs, transition midpoint of dose curve)) | growth stimulation of ECs on the QCM biosensor [4]
1 | COC(=O)Nc1nc2ccc(C(=O)c3cccs3)cc2[nH]1 [nocodazole] | lost cell-cell contact | smaller than control cells | the monolayer became disrupted | significantly reduced cellular area | around 330 nM | ≤ 6 µM | 14 Ω | 360 Hz | 50% | 50% | 900 nM | ~900 nM | –
2 | Fibroblast Growth Factor | – | – | – | – | – | – | – | – | – | – | – | – | stimulated the ECs to divide

— patent US20030008335A1, “Biosensor for drug candidates” (priority 2001, published 2003)
